What was measured:
[1] = test system: rabbit anterior cruciate ligament transection (ACLT) model of osteoarthritis; assay: ACLT model, p38 MAP kinase inhibitors (Example VII); type: in vivo; design: key to Clinical Scoring - Total Score, Mean / Clinical Scoring - Trochlear Groove Effects, Mean / Clinical Scoring - All Tibial Plateau Effects, Mean / Clinical Scoring - All Cartilage Effects, Mean / Clinical Scoring - All Condylar Effects, Mean: gross joint damage score; higher = more damage; details: for All Condylar Effects: at the low dose; for Total Score / All Cartilage Effects: both doses; for All Cartilage Effects: compared to the non-injected control group; for lateral femoral condyle surface erosion: high and low dose
Description: New Zealand white rabbits (male, six to eight pounds) were anesthetized with ketamine (17 mg/kg) and xylazine (2.5 mg/kg). Supplementation was given during surgery, if needed, with an additional intramuscular injection of ketamine (35 mg/kg) and xylazine (5 mg/kg). The animals were given buprenorphine (0.01-0.05 mg/kg) for analgesia via a subcutaneous injection. The buprenorphine was administered every twelve hours for seventy-two hours. After induction of anesthesia, the right leg was clipped free of hair using electric animal clippers. The area around the site of surgery was scrubbed with chlorhexidine diacetate, rinsed with alcohol, dried, and painted with an aqueous iodophor solution of 1% available iodine and surgery was prepared using aseptic technique. In the right limb of each animal, the anterior cruciate ligament (ACL) was transected. A medial parapatellar incision was made and the patella was dislocated. The knee was flexed and the ACL visualized. A scalpel blade was positioned behind the ACL and brought anteriorly, thereby cutting the ACL while protecting the posterior cruciate ligament. The patella was returned to the normal anatomic position. The wound was closed in layers.
Following surgery, the animals were left untreated for six weeks. After six weeks, a series of five injections of the test compound were injected intra-articularly once weekly.
The animals were euthanized six weeks after initiation with an intravenous injection of pentobarbital (60 mg/kg). […] Immediately following euthanasia, gross observations of the knee joints were made and any abnormality was recorded. The joints were analyzed for disease state in the trochlear groove, the femoral condyles and the tibial plateau. Pathological assessments were performed on the sectioned tissue. Condylar structure, cellularity, presence of GAG and presence of cartilage were evaluated.
Sterile formulations of the test compounds were prepared by gamma irradiating (15 kGy) them on dry ice. […] All formulations were prepared in an aseptic manner by dispersing the drug into ARTHREASE®. […] The drug was delivered in a volume of 160 μL at a concentration of […]. The low dose was made by diluting with ARTHREASE® to the final concentration.
Ninety-six (96) rabbits underwent ACLT on the right knee (n=ten per group) according to the ACLT model. Anesthesia, analgesia, surgical preparation, surgery, intra-articular injections, and euthanasia were conducted according to the ACLT model.
At the time of sacrifice, the following parameters were evaluated grossly (the scale follows in parenthesis):
Each parameter was given a score. The combination of all parameters gave a Total Score. A higher score indicates more damage to the joint. […] Individual results for each parameter assessed were tabulated. Data for the individual scores is not shown.

[2] = target: inactivated p38 MAP kinase (Homo sapiens, UniProt Q16539); assay: binding to inactivated p38 MAP kinase; details: read-out: binds to inactivated p38 MAP kinase, Kd
Chain of inactivated p38 MAP kinase (Q16539 whole entry): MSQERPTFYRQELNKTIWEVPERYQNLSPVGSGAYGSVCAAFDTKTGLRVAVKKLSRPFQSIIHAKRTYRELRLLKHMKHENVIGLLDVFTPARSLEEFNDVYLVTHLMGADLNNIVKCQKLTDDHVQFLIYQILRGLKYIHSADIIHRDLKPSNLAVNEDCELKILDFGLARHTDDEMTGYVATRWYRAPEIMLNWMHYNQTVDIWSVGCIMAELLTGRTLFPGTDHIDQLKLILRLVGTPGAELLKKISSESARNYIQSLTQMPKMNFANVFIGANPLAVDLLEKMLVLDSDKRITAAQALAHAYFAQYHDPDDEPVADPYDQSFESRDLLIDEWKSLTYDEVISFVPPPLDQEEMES

[3] = target: p38α MAP kinase (Homo sapiens, UniProt Q16539); assay: p38α MAP kinase enzyme inhibition; type: biochemical
Chain of p38α MAP kinase (Q16539 whole entry): as above

[4] = target: COX1 (Homo sapiens, UniProt P23219); assay: COX1 inhibition; type: biochemical
Chain of COX1 (P23219 24-599): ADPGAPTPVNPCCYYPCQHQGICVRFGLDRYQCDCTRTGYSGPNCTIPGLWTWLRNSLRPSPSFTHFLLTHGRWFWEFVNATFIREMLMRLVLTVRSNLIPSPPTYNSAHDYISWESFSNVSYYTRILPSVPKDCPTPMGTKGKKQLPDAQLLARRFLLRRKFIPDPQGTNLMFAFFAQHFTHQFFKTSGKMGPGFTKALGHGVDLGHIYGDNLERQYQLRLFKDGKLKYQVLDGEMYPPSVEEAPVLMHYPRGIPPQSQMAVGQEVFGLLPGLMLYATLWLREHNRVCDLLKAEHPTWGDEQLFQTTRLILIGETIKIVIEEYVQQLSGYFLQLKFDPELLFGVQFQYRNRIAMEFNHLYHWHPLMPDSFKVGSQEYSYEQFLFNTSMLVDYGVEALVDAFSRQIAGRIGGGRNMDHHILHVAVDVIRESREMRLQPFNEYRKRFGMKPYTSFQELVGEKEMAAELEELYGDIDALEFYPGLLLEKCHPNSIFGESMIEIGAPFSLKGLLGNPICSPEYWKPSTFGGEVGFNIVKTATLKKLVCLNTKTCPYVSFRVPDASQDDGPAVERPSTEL

| Structure (SMILES) | All Condylar Effects [1] | Total Score [1] | All Cartilage Effects [1] | lateral femoral condyle surface erosion [1] | Clinical Scoring - All Cartilage Effects, Mean ([1]; high dose) | Clinical Scoring - All Condylar Effects, Mean ([1]; high dose) | Clinical Scoring - All Tibial Plateau Effects, Mean ([1]; high dose) | Clinical Scoring - Total Score, Mean ([1]; high dose) | Clinical Scoring - Trochlear Groove Effects, Mean ([1]; high dose) | Clinical Scoring - All Cartilage Effects, Mean ([1]; low dose) | Clinical Scoring - All Condylar Effects, Mean ([1]; low dose) | Clinical Scoring - All Tibial Plateau Effects, Mean ([1]; low dose) | Clinical Scoring - Total Score, Mean ([1]; low dose) | Clinical Scoring - Trochlear Groove Effects, Mean ([1]; low dose) | Kd [2] | IC50 [3] | IC50 [4] |
| --- | --- | --- | --- | --- | --- | --- | --- | --- | --- | --- | --- | --- | --- | --- | --- | --- | --- |
| OCCC#Cc1nc(-c2ccc(F)cc2)c(-c2ccncc2)n1CCCc1ccccc1 [JNJ 3026582 (RWJ 67657), 4-[4-(4-fluorophenyl)-1-(3-phenylpropyl)-5-(4-pyridinyl)-1H-imidazol-2-yl]-3-butyn-1-ol] | no effect | Neither JNJ 3026582 (RWJ 67657) nor SCIO-282 (SD 282) had an effect | no efficacy | no effect | 9.75 | 6.25 | 2.25 | 16.58 | 7.92 | 7.58 | 4.71 | 1.63 | 14.17 | 7.75 |  |  |  |
| CC(=O)N1CCN(c2c(-c3ccncc3)c(-c3ccc(F)cc3)c(C#N)n2C)CC1 [JNJ 17089540 (RWJ 669307)] | decrease in overall clinical score | trended downward | reduction in scores | efficacious in reducing the clinical score | 6.21 | 3.75 | 2.38 | 12.46 | 6.25 | 5 | 2.68 | 1.95 | 10.41 | 5.55 | 0.1 µM | 2 µM | > 10 µM |

From US8986696B2, “Trans-capsular administration of p38 map kinase inhibitors into orthopedic joints” (DePuy Mitek, Inc., priority 2007, dated 2015)
